Key:
Acetylcholinesterase [1] = biological target: T1, Acetylcholinesterase (Homo sapiens, UniProt P22303); test: Ratio of k2/k-2 for acetylcholinesterase
Acetylcholinesterase [2] = biological target: T1, Acetylcholinesterase; test: Dissociation constant for acetylcholinesterase
Acetylcholinesterase [3] = biological target: T1, Acetylcholinesterase; test: Kinetic constant (k2) for acetylcholinesterase
Acetylcholinesterase [4] = biological target: T1, Acetylcholinesterase; test: Kinetic constant (k-2) for acetylcholinesterase
[5] = Carbamylation rate constant was determined
Acetylcholinesterase [6] = biological target: T1, Acetylcholinesterase; test: Inhibition constant for acetylcholinesterase

T1 sequence (P22303 whole entry): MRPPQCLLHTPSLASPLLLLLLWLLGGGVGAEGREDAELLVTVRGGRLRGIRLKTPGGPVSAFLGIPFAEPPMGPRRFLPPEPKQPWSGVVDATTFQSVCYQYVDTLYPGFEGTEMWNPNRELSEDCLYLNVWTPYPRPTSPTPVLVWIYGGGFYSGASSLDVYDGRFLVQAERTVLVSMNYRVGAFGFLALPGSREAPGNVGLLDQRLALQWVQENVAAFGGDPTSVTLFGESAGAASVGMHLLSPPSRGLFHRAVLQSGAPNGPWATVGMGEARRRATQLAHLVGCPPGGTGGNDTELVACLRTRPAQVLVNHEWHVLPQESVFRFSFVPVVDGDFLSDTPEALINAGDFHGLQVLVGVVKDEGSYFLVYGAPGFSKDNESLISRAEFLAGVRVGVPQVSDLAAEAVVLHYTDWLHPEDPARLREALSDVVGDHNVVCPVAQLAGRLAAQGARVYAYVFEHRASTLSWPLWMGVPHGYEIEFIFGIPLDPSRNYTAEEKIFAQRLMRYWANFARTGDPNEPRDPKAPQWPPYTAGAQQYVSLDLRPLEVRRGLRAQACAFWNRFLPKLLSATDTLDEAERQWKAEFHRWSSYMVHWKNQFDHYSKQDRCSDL

| Structure (SMILES) | Ratio (Acetylcholinesterase [1]) | Ks (Acetylcholinesterase [2]) [µM] | k2 (Acetylcholinesterase [3]) | k-2 (Acetylcholinesterase [4]) | kc [5] | Ki (Acetylcholinesterase [6]) [nM] |
| --- | --- | --- | --- | --- | --- | --- |
| CCCCNC(=O)OCCO | 1.5 | 2.3 | 7.5 10e-3 1/s | 5 10e-3 1/s | 3.1 10e-3 1/s |  |
| CCCCNC(=O)OCCCCCCCCOC(=O)NCCCC | 2.6 | 0.39 | 4.2 10e-3 1/s | 1.6 10e-3 1/s | 4 10e-3 1/s | 150 |
| CCCCNC(=O)OCCCCCCCCCCO | 2.5 | 0.52 | 7.6 10e-3 1/s | 3.1 10e-3 1/s | 3.9 10e-3 1/s | 200 |
| CCCCNC(=O)OCCCCCCCCCCCCOC(=O)NCCCC | 2.2 | 0.36 | 5 10e-3 1/s | 2.2 10e-3 1/s | 4.6 10e-3 1/s | 160 |
| CCCCNC(=O)OCCOC(=O)NCCCC | 8 | 2.9 | 2.8 10e-3 1/s | 0.35 10e-3 1/s | 3 10e-3 1/s | 360 |
| CCCCNC(=O)OCCCCCCCCCCCCO | 2 | 0.65 | 8.1 10e-3 1/s | 4 10e-3 1/s | 4.1 10e-3 1/s | 300 |
| CCCCNC(=O)OCCCCCCCCCCOC(=O)NCCCC | 2.3 | 0.37 | 4.6 10e-3 1/s | 2 10e-3 1/s | 4.1 10e-3 1/s | 160 |
| CCCCNC(=O)OCCCCCO | 2 | 2.2 | 8.1 10e-3 1/s | 5 10e-3 1/s | 3.5 10e-3 1/s | 1400 |
| CCCCNC(=O)OCCCCCCCCCCCCCCCCOC(=O)NCCCC | 2 | 0.34 | 6.1 10e-3 1/s | 3.1 10e-3 1/s | 5.3 10e-3 1/s | 170 |
| CCCCNC(=O)OCCCCCCCCCCCCCCO | 1.3 | 0.45 | 5.3 10e-3 1/s | 4 10e-3 1/s | 4.6 10e-3 1/s | 200 |
| CCCCNC(=O)OCCCCCOC(=O)NCCCC | 5.5 | 1.4 | 3.4 10e-3 1/s | 0.62 10e-3 1/s | 3.3 10e-3 1/s | 250 |
| CCCCNC(=O)OCCCCCCCCO | 2.4 | 0.88 | 7.2 10e-3 1/s | 3 10e-3 1/s | 3.6 10e-3 1/s | 360 |
| CCCCNC(=O)OCCCCCCCCCCCCCCOC(=O)NCCCC | 2.3 | 0.36 | 5.4 10e-3 1/s | 2.4 10e-3 1/s | 4.9 10e-3 1/s | 160 |
| CCCCNC(=O)OCCCCCCCCCCCCCCCCO | 2 | 0.37 | 6.1 10e-3 1/s | 3 10e-3 1/s | 4.9 10e-3 1/s | 130 |
